The values that follow come from publication PMC7273600 (The Journal of Veterinary Medical Science, 2020).

In one series the test system is CYP2C9. Particulars: read-out: IC50 for CYP2C9; human microsomes; cited from earlier work.
A further series relates to CYP2D6. Particulars: read-out: IC50 for CYP2D6; human microsomes; cited from earlier work.
Series [1] deals with CYP3A. Particulars: read-out: Km of midazolam reported in rats; cited from earlier work.
Series [2] deals with CYP1A. Conditions: cited from earlier work.
Series [3] has as its system CYP2C. Particulars: read-out: Km of tolbutamide reported in rats; cited from earlier work.
Series [4] has as its system CYP2C. In words: Inhibition of tolbutamide hydroxylation. The class given is in vitro ADME, rat. Conditions: at 1,000 µM.
Series [5] has as its system CYP2D. In words: Inhibition of bufuralol 1'-hydroxylation. In kind it is in vitro ADME, rat. Conditions: at 1,000 µM.
Series [6] has as its system CYP3A. In words: Inhibition of midazolam 4-hydroxylation. Particulars: at 1,000 µM. In kind it is in vitro ADME, rat.
The test system of series [7] is CYP2C. In words: Hepatic microsomal TBH activity after oral administration for five days. Conditions: five consecutive days, P≤0.05.
The test system of series [8] is CYP2D. In words: Hepatic microsomal BLH activity after oral administration for five days. Particulars: five consecutive days, P≤0.05.
Series [9] relates to CYP1A. The series is described as follows: Hepatic microsomal EROD activity after oral administration for five days. Conditions: five consecutive days, P≤0.05.
Series [10] concerns CYP3A. The series is described as follows: Hepatic microsomal MDZH activity after oral administration for five days. Particulars: five consecutive days, P≤0.05.
The subject of a further series is cytochrome P450. Conditions: five days; for Effect of oral treatment on total CYP content: decrease seen at high dose, P≤0.05; for Total cytochrome content, High dose / Total cytochrome content, Low dose: male SD rats, oral, mean ± SD (n=5); for Total cytochrome content, High dose: one-tenth of LD50; for Total cytochrome content, Low dose: one-thirtieth of LD50.
A further series relates to CYP. Particulars: hen treated with tribufos; cited from earlier work.
In series [11] the test system is CYP1A. The series is described as follows: Inhibition of ethoxyresorufin O-deethylation. In kind it is in vitro ADME. Conditions: rat hepatic microsomes; for Concentration that evidently inhibited EROD: Fig. 2.
The next series has as its system CYP1A1/2. Particulars: read-out: IC50 for CYP1A1/2; human microsomes; cited from earlier work.
A further series relates to CYP2B6. Particulars: read-out: IC50 for CYP2B6; human microsomes; cited from earlier work.
A further series concerns CYP2C8. Conditions: read-out: IC50 for CYP2C8; human microsomes; cited from earlier work.
The conditions of series [12]: ref Food Safety Commission of Japan; cited from earlier work.
The test system of series [13] is CYP1A. Particulars: read-out: Km of ethoxyresorufin reported in rats; cited from earlier work.
Series [14] relates to CYP2D. Conditions: read-out: Km of bufuralol reported in rats; cited from earlier work.

Marks after values point to notes of the source that are not given here.

Regarding `CCOC(=O)CC(SP(=S)(OC)OC)C(=O)OCC` (stereo not shown) [malathion], the IC50 with CYP2C9 is 2500 nM.

On to `CCOC(=O)C(SP(=S)(OC)OC)c1ccccc1` (stereo not shown) [phenthoate], for which, in the series with CYP2D6, the IC50 was approximately 3000 nM.

As for `Cc1ncc2n1-c1ccc(Cl)cc1C(c1ccccc1F)=NC2` [midazolam], in the series with CYP3A [1], the Km (as a rule, the substrate concentration at which the rate is half of its maximum) is 22 µM.

As for `CC1(C)C(C(=O)OC(C#N)c2cccc(Oc3ccccc3)c2)C1(C)C` (stereo not shown) [fenpropathrin], in the series with CYP1A [2], the “Effect on hepatic CYP1A” value is given as “potent inhibitor of CYP1A”.

For `CC1(C)C(C=C(Cl)Cl)C1C(=O)OCc1cccc(Oc2ccccc2)c1` (stereo not shown) [permethrin], the “Effect on hepatic CYP1A” value in the series on CYP1A [2] is “potent inhibitor of CYP1A”.

Consider `CCCCNC(=O)NS(=O)(=O)c1ccc(C)cc1` [tolbutamide], for which the Km with CYP2C [3] was 1910 µM.

With `COP(=O)(OC)OC=C(Cl)Cl` [Dichlorvos, dichlorvos], in the series with CYP2C [4], the “Inhibitory effect on TBH” value is “not evident”. The “Inhibitory effect on BLH” value in the series on CYP2D [5] is recorded as “not evident”. Besides, in the series on CYP3A [6], the “Inhibitory effect on MDZH” value is “not evident”. Further, the “Microsomal activity of TBH compared with control group” value in the series on CYP2C [7] was “no significant effects”. For the same compound, in the series with CYP2D [8], the “Microsomal activity of BLH compared with control group” value is listed as “no significant effects”. Further, the “Microsomal activity of EROD compared with control group” value with CYP1A [9] is reported as “no significant effects”. The “Microsomal activity of MDZH compared with control group” value with CYP3A [10] is “no significant effects”. In the series with cytochrome P450, the “Effect of oral treatment on total CYP content” value (“Effect of oral treatment” for short) was “not significantly affected”; the “Total cytochrome content, High dose” value is on record as 1.75 ± 0.18 nM/mg protein; the “Total cytochrome content, Low dose” value is 1.69 ± 0.40 nM/mg protein.

Consider `CCCCSP(=O)(SCCCC)SCCCC` [tribufos, S,S,S-tri-n-butyl phosphorotrithioate], for which, in the series with CYP, the “Increase of CYP content in hepatic microsomes” value is 2–3 fold.

With `COP(=S)(OC)Oc1ccc([N+](=O)[O-])c(C)c1` [Fenitrothion, fenitrothion], the “Manner of EROD inhibition” value with CYP1A [11] is reported as “noncompetitive”. Further, the “Concentration that evidently inhibited EROD” value in the series on CYP1A [11] is on record as “less than 1 µM”. In addition, the IC50 in the series with CYP1A1/2 is approximately 3000 nM; with CYP2B6, 2500 nM; in the series with CYP2C8, 4300 nM; in the series with CYP2C9 it was 4800 nM. In series [12], the “Acceptable daily intake (ADI)” value is recorded as 0.005 mg/kg/day. Further, in the series with CYP2C [7], the “Microsomal activity of TBH compared with control group” value is recorded as “significantly higher”. Also, the “Microsomal activity of EROD compared with control group” value in the series with CYP1A [9] was “significantly lower”. Further, the “Microsomal activity of MDZH compared with control group” value in the series on CYP3A [10] was “significantly lower”. Moreover, the “Effect of oral treatment” value with cytochrome P450 is “not significantly affected”. Moreover, the “Total cytochrome content, High dose” value with cytochrome P450 stood at 1.18 ± 0.23 nM/mg protein. For the same compound, the “Total cytochrome content, Low dose” value in the series with cytochrome P450 worked out at 1.38 ± 0.51 nM/mg protein.

On to `CCOc1ccc2nc3ccc(=O)cc-3oc2c1` [ethoxyresorufin], for which the Km with CYP1A [13] is 0.227 µM.

For the compound `CCc1cccc2cc(C(O)CNC(C)(C)C)oc12` (stereo not shown) [bufuralol], the Michaelis-Menten constant (Km) in the series with CYP2D [14] is 6.4 µM.

For the compound `CCOP(=S)(OCC)Oc1nc(Cl)c(Cl)cc1Cl` [Chlorpyrifos, chlorpyrifos], in the series on CYP1A [11], the “Manner of EROD inhibition” value was “noncompetitive” and the “Concentration that evidently inhibited EROD” value is reported as “less than 1 µM”. The IC50 in the series with CYP1A1/2 is approximately 3000 nM. The IC50 in the series with CYP2B6 is 2500 nM. In the series with CYP2D6, the IC50 is approximately 3000 nM. The “Acceptable daily intake (ADI)” value in series [12] is given as 0.001 mg/kg/day. Further, the “Microsomal activity of TBH compared with control group” value in the series with CYP2C [7] is recorded as “no significant effects”. Moreover, the “Microsomal activity of BLH compared with control group” value in the series on CYP2D [8] is on record as “no significant effects”. For the same compound, the “Microsomal activity of EROD compared with control group” value in the series on CYP1A [9] is “no significant effects”. The “Microsomal activity of MDZH compared with control group” value in the series with CYP3A [10] was “no significant effects”. Also, in the series with cytochrome P450, the “Effect of oral treatment” value is “significantly decreased”; the “Total cytochrome content, High dose” value is on record as 1.30 ± 0.48^a) nM/mg protein; the “Total cytochrome content, Low dose” value is given as 1.69 ± 0.18 nM/mg protein.

With `CCCSP(=O)(OCC)Oc1ccc(Br)cc1Cl` (stereo not shown) [profenofos], the IC50 in the series with CYP1A1/2 is approximately 3000 nM.
